Measured values published in patent publication US9988355B2, “Form A of mesylate for nicotinamide derivatives and preparation method and application thereof” (SHANGHAI SUNTRONG BIOTECHNOLOGY CO., LTD., priority 2014, dated 2018).
Structures can show the parent of a compound that is named as a salt.

What was measured:
Assay type in all cases: physicochemical
[1] = Solubility comparison of different crystal forms in water and ethanol
Excerpt: Embodiment 15. Solubility Comparison of Different Crystal Forms
The form A of mesylate for niacinamide derivatives prepared according to the method of the embodiment 4 and the needle solid of nicotinamide derivatives mesylate prepared according to the method of the embodiment 10 were respectively dissolved in water and ethanol, and solubility results were shown in Table 1.

[2] = Stability comparison of different crystal forms by solid-state representation means (XRPD), 6 months
Method: Embodiment 17. Stability Comparison of Different Crystal Forms Determined by Adopting Solid-State Representation Means
The form A of mesylate for niacinamide derivatives prepared according to the method of the embodiment 4 and the needles solid of nicotinamide derivatives mesylate prepared according to the method of the embodiment 10 were respectively put in the environment with light, high humidity (relative humidity (RH) is 90%), room temperature and high temperature (60° C.) for 6 months, XRPD determination was performed by adopting a solid-state representation means, and examination results were shown in Table 3.

[3] = Stability comparison of different crystal forms determined by HPLC, 6 months
Method: Embodiment 16. Stability Comparison of Different Crystal Forms Determined by HPLC
The form A of mesylate for niacinamide derivatives prepared according to the method of the embodiment 4 and the mesylate needles of nicotinamide derivatives prepared according to the method of the embodiment 10 were respectively put in the environment with light, high humidity (relative humidity (RH) is 90%), room temperature and high temperature (60° C.) for 6 months, the contents of related substances of the sample were determined by adopting HPLC, and examination results were shown in Table 2. HPLC testing conditions: chromatographic column Venusil MP-C18 (4.6 mm×250 mm, 5 μm, 100 Å); Mobile phase A: 0.1% acetum, B: acetonitrile, gradient conditions (0 min, 95% A; 20 min, 5% A; 25 min, 5% A; 30 min, 95% A); Detection wavelength 254 nm; Flowing speed 1 ml/min; Column temperature 30° C.; Sample amount 20 μl.

[4] = Hygroscopicity determination by TGA after storage at room temperature, humidity 40%
Method: Embodiment 11. Hygroscopicity Determination of the Contrast Needles Shape Solid of Nicotinamide Derivatives Mesylate
The obtained compound referred in a Chinese patent CN101676267 was 180.2 g of white needle-like crystals (0.365 mol) with the molecular weight being 493.5. It can thus be seen that the contrast needles shape solid of nicotinamide derivatives mesylate was anhydrate. The white needles of nicotinamide derivatives mesylate were prepared according to the method of […], and a DSC-TGA pattern of the needles as shown in FIG. 2 was obtained. Wherein, the testing conditions of differential scanning calorimetry (DSC) were 10° C./min with range of 30-300° C., and TGA testing conditions were 10° C./min from room temperature to 350° C. A proper amount of the needle samples of nicotinamide derivatives mesylate were placed at the room temperature under the humidity condition of 40%, and TGA detection was conducted on the solid respectively at the time intervals of 24 hours, 48 hours and 72 hours.

[5] = High-temperature, high-humidity and light stability of the crystal form, XRPD after 5 days
Method: Embodiment 14. Determination of High-Temperature Stability, High-Humidity Stability and Light Stability of the Mesylate Crystal Form A of Nicotinamide Derivatives of the Present Invention
The mesylate crystal form A of nicotinamide derivatives prepared according to the method of the embodiment 4 was tested.
(1) High-Temperature Stability
(2) High-Humidity Stability

## N#CC1(c2ccc(NC(=O)c3cccnc3NCc3ccncc3)cc2)CCCC1 [Contrast needles, N-[4-(1-cyanocyclopentyl)phenyl]-2-(4-pyridylmethyl) amidogen-3-pyridineethanamine]
[1]
  Water solubility: Insoluble
[2]; 60° C. for 6 months
  Crystal form after storage (XRPD): Unchanged
[2]; Illuminating for 6 months
  Crystal form after storage (XRPD): Unchanged
[3]; 60° C. for 6 months
  Contents of related substances of the sample by HPLC: 98.2%
[3]; Illuminating for 6 months
  Contents of related substances of the sample by HPLC: 99.4%
[3]; RH90% for 6 months
  Contents of related substances of the sample by HPLC: 98.8%
[3]; Room temperature for 6 months
  Contents of related substances of the sample by HPLC: 99.2%
[4]; 24-72 hours
  Hygroscopicity (conclusion in words): a certain hygroscopicity
[4]; 24 hours
  TGA weight loss after storage under humidity: 3.311%
[4]; 48 hours
  TGA weight loss after storage under humidity: 3.191%
[4]; 72 hours
  TGA weight loss after storage under humidity: 3.332%

## N#CC1(c2ccc(NC(=O)c3cccnc3NCc3ccncc3)cc2)CCCC1 [The form A of mesylate for niacinamide derivatives of the pr] [N-[4-(1-cyanocyclopentyl)phenyl]-2-(4-pyridylmethyl) amidogen-3-pyridineethanamine]
[1]
  Water solubility: Insoluble
[5]; airtight container, humidity 92.5%
  High-humidity stability (XRPD compared with FIG. 1): good stability in a high-humidity environment
[5]; airtight drying oven of 60° C.
  High-temperature stability (XRPD compared with FIG. 1): good high-temperature stability
[5]; transparent container, light 4500 lux
  Light stability (XRPD compared with FIG. 1): good light stability
[2]; 60° C. for 6 months
  Crystal form after storage (XRPD): Unchanged
[2]; Illuminating for 6 months
  Crystal form after storage (XRPD): Unchanged
[2]; RH90% for 6 months
  Crystal form after storage (XRPD): Unchanged
[2]; Room temperature for 6 months
  Crystal form after storage (XRPD): Unchanged
[3]; 60° C. for 6 months
  Contents of related substances of the sample by HPLC: 98.1%
[3]; Illuminating for 6 months
  Contents of related substances of the sample by HPLC: 99.6%
[3]; RH90% for 6 months
  Contents of related substances of the sample by HPLC: 98.5%
[3]; Room temperature for 6 months
  Contents of related substances of the sample by HPLC: 99.4%
